The source of these data is patent publication US20250361230A1, “LATS Inhibitors and Uses Thereof” (The USA, as Represented by the Secretary, Dept. of Heath …, priority 2022, published 2025).

The target in experiment [1] is T1, LATS1 Kinase-NanoLuc fusion in HEK-293 cells (Homo sapiens, UniProt O95835).
T1 construct: host or cells: HEK-293
T1 sequence (O95835 1-1130): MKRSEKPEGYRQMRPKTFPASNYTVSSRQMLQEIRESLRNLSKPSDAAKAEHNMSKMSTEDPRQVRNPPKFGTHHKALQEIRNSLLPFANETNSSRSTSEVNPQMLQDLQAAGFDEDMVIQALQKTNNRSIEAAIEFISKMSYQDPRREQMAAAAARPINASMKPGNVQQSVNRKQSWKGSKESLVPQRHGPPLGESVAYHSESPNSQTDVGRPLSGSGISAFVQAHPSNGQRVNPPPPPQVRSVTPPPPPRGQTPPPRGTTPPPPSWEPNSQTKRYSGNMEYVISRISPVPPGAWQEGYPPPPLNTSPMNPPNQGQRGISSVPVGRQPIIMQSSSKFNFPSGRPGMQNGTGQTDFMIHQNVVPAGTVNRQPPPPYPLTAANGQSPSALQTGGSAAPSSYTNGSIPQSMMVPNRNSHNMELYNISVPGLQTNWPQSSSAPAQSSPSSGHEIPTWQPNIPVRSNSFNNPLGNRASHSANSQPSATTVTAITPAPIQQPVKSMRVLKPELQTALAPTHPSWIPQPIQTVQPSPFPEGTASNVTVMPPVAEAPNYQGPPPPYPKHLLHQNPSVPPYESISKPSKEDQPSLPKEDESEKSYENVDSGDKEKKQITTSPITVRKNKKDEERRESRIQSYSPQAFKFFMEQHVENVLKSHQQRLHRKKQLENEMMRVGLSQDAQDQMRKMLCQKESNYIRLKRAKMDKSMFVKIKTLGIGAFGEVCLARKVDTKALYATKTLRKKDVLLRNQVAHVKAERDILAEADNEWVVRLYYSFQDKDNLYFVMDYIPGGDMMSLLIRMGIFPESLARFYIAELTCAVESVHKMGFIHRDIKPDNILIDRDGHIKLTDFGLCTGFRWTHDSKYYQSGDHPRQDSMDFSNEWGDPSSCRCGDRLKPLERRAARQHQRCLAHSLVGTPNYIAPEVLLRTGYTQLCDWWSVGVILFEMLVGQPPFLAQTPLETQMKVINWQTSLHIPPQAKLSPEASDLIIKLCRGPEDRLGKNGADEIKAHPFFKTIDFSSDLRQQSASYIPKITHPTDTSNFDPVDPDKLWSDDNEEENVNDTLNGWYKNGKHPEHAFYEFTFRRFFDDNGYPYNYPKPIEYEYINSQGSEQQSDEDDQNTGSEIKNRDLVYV
In words: NanoBRET target engagement assay in transfected HEK-293 cells, LATS1. The class given is cell-based. Conditions: cellular. Summed up: (§1)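 HEK-293 cells transiently transfected with kinase-NanoLuc fusion plasmid for 22-24 h, then incubated with compound and NanoBRET tracer for 1 hour at 37° C. After substrate plus extracellular NanoLuc inhibitor addition, 460 and 600 nm emissions read; no-tracer-corrected BRET ratio used to derive IC50 values.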
For orientation: In BRET a luciferase serves as donor, and the signal depends on an acceptor being close.

For experiment [2], the target named is T2, AKT Kinase-NanoLuc fusion in HEK-293 cells (Homo sapiens, UniProt P31749).
T2 construct: host or cells: HEK-293
T2 sequence (P31749 whole entry, the tested form may be a part): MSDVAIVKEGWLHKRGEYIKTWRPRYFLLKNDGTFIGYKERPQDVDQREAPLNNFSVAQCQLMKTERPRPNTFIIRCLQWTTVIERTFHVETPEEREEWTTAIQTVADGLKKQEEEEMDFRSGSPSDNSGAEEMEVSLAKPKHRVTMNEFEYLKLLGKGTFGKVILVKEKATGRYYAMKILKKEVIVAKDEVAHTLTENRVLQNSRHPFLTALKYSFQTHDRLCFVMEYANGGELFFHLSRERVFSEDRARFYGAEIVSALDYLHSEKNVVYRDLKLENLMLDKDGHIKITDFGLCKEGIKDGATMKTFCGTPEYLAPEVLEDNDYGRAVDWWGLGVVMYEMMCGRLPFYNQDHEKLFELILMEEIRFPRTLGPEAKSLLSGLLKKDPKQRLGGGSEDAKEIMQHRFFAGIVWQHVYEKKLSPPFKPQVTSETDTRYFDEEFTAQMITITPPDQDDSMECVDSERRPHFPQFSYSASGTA
In words: NanoBRET target engagement assay in transfected HEK-293 cells, AKT. The class given is cell-based. Conditions: cellular; read-out: AKT (Cellular) IC50. An outline of the steps: as §1

As to `Cc1cc(-c2ccnc3[nH]cc(C#N)c23)ccc1[C@@]1(O)[C@H](C)CN(C2CCS(=O)(=O)CC2)C[C@@H]1C` [Compound 2003, 4-(4-((3S,4s,5R)-1-(1,1-dioxidotetrahydro-2H-thiopyran-4-yl)-4-hydroxy-3,5-dimethylpiperidin-4-yl)-3-methylphenyl)-1H-pyrrolo[2,3-b]pyridine-3-carbonitrile], the IC50 in experiment [1] is 0.015 µM; in experiment [2], 28.5 µM.

One may read the IC50 as the concentration that inhibits the measured activity by half.
